Laboratory results: US8883789B2, “Piperazine derivatives and their use as positive allosteric modulators of mGluR5 receptors” (Boehringer Ingelheim International GmbH, priority 2011, dated 2014)

target: T1, human recombinant mGluR5 (Homo sapiens, UniProt P41594); assay: positive modulation of mGluR5, calcium based FLIPR assay; settings: HEK 293 cell line expressing human recombinant mGluR5; Ca2+ peak height after glutamate at approximately 5% basal stimulation; nonlinear regression
T1 construct: expressed in transfected cells; hygromycin and geneticin selection
Experimental: The positive modulation of mGluR5 is measured in a HEK 293 cell line expressing human recombinant mGluR5 and is detected with calcium based FLIPR assay. The cells are cultured with DMEM supplemented with 10% FCS, 2 μg/mL tetracycline, 100 μg/mL hygromycin and 500 μg/mL geneticin. The cell culture media is exchanged for tetracycline-free cell culture media 3-7 days before the assay. One day before the assay the cell culture medium is exchanged to DMEM without glutamine and phenol red and supplemented with 10% FCS, 100 μg/mL hygromycin and 500 μg/mL geneticin. On the assay day, the medium of the subconfluent cultures is removed and the cells are detached by addition of 2.5 ml EDTA (0.02%) per 175 cm2 culture flask for 1 minute. The cells are resuspend in Ringer solution (140 mM NaCl, 5 mM KCl, 2.5 mM CaCl2, 1.5 mM MgCl2, 5 mM Glucose, 10 mM Hepes; adjusted to pH 7.4 with NaOH), pooled and Ringer solution added to adjust the volume to 50 mL. The cell suspension is centrifuged for […] at 1500 U/min (425 g). The supernatant is removed and the cells washed a second time with 50 ml fresh Ringer solution and centrifuged again as before. The supernatant is again removed and the pellet resuspended in Ringer solution to 1,000,000 cells/ml (1×10^6 cells/mL). The cells are plated onto BD BioCoat Poly-D-Lysine 384 well plates (20.000 cells/well; 20 μl/well). The lid covered plates are then incubated until use at 37° C./10% CO2. For dye loading, 20 μl of Calcium-4 assay kit solution (prepared according to the manufacturer's description in Ringer solution) are added to the cells and the plates are incubated for 80 min 37° C. and then 10 min at room temperature.
Controls, Compound Dilution and Assay Execution:
Each assay plate contained wells with “high” and “low” controls:
Low controls 1% DMSO/ringer solution+basal glutamate activation (defined as 100% CTL).
High controls 10 μM CDPPB+basal glutamate activation (defined as 200% CTL).
Test compounds are dissolved and diluted in DMSO to 100-fold the desired concentrations. In a second step, the compounds are diluted in Ringer solution such that the compounds are 4-fold more concentrated than the desired final assay concentration. The final DMSO concentration was 1%.
20 μl of each compound solution are then transferred to the assay plate and the Ca2+ kinetic is measured to determine any intrinsic compound activity. After 5 min incubation in the FLIPR device, the second stimulation with 20 μl of glutamate in Ringer solution (glutamate concentration adjusted to approximately 5% basal stimulation of the maximal possible glutamate effect) is added and the kinetic Ca2+ response of the wells was measured for the modulation effect.
The peak height of the Ca release related fluorescence signal (9-66) is used for the EC50.
The EC50 of the modulation is calculated over a nonlinear regression with GraphPad Prism (Table 1).

T1 sequence (P41594 21-1212): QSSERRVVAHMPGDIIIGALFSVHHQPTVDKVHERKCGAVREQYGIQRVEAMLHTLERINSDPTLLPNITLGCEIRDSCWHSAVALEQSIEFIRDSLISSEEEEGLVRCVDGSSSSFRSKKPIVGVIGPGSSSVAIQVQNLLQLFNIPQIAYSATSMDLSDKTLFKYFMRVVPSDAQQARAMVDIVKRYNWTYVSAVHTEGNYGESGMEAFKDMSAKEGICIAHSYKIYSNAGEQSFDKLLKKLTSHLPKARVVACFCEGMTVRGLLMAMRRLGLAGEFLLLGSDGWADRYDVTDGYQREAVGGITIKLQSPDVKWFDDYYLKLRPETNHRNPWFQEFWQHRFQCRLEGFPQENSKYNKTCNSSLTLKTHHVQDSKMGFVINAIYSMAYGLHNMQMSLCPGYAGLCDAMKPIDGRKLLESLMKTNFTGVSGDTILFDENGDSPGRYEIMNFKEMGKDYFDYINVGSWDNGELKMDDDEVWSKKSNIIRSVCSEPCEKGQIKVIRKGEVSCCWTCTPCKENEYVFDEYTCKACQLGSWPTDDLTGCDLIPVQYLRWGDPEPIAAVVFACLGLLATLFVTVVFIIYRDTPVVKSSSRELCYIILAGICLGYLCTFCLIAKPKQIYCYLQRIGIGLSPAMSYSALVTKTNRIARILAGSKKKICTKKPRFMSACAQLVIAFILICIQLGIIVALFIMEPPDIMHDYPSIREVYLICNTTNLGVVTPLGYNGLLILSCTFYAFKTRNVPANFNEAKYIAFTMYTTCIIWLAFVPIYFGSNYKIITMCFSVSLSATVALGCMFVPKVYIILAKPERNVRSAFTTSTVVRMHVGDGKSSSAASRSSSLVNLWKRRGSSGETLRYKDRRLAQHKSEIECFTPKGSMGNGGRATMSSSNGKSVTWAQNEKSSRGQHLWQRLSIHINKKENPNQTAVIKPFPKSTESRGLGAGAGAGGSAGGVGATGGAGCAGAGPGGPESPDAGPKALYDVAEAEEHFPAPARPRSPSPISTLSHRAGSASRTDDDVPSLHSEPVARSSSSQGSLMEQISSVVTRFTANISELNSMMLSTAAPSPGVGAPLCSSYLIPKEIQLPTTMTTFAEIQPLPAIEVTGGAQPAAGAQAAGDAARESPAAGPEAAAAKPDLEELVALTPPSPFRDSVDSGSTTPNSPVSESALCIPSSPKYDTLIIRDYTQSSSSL

Cc1cc2cc(C(=O)N3CCN(C(=O)c4ncn(-c5ccccc5)n4)C(C)(C)C3)ccc2[nH]1 [Example 142] was tested. Which EC50 did it give?
Its EC50 is 122 nM.

Which EC50 does the source give for COc1cccc(C(=O)N2CCN(C(=O)c3ncn(-c4cccc(C)c4)n3)C(C)C2)n1 (stereo not shown) [Example 296, [4-(6-Methoxy-pyridine-2-carbonyl)-2-methyl-piperazin-1-yl]-(1-m-tolyl-1H-[1,2,4]-triazol-3-yl)-methanone] here?
The EC50 was 269 nM.

How did the EC50 turn out when CC1CN(C(=O)c2ncn(-c3cccc(Cl)c3)n2)CCN1C(=O)c1cc(Br)c(Br)o1 (stereo not shown) [Example 210, [1-(3-Chloro-phenyl)-1H-[1,2,4]triazol-3-yl]-[4-(4,5-dibromo-furan-2-carbonyl)-3-methyl-piperazin-1-yl]-methanone] was run?
Its EC50 is 314 nM.

With COc1cccc(C(=O)N2CCN(C(=O)c3ncn(-c4ccccc4)n3)C(C)C2)n1 (stereo not shown) [Example 298] as the compound, how does the EC50 read?
The EC50 was 619 nM.

Which EC50 does the source give for COc1cccc(C(=O)N2CCN(C(=O)c3nnn(-c4cccc(Cl)c4)n3)C(C)(C)C2)n1 [Example 199] here?
Its EC50 is 69 nM.

For CC1CN(C(=O)c2ncn(-c3cccc(Cl)c3)n2)CCN1C(=O)c1cccc(-c2nccs2)c1 (stereo not shown) [Example 218], which EC50 is on record?
The EC50 was 422 nM.

CC1(C)CN(C(=O)c2cc(Br)c(Br)o2)CCN1C(=O)c1ncn(-c2cccc(Cl)c2)n1 [Example 25] was tested. Which EC50 did it give?
Its EC50 is 62 nM.

Which EC50 does the source give for COc1cc(C)cc(C(=O)N2CCN(C(=O)c3ncn(-c4cccc(Cl)c4)n3)C(C)(C)C2)n1 [Example 22] here?
The EC50 was 58 nM.

How did the EC50 turn out when CC1(C)CN(C(=O)c2cc3ccccc3c(C3CC3)n2)CCN1C(=O)c1ncn(-c2ccccc2)n1 [Example 203] was run?
Its EC50 is 62 nM.

With COc1cc(C(=O)N2CCN(C(=O)c3ncn(-c4cccc(Cl)c4)n3)C(C)C2)ccc1C (stereo not shown) [Example 277] as the compound, how does the EC50 read?
The EC50 was 507 nM.

For Cc1oc2ccc(Br)cc2c1C(=O)N1CCN(C(=O)c2ncn(-c3ccccc3)n2)C(C)(C)C1 [Example 100], which EC50 is on record?
The EC50 was 29 nM.

With COc1cccc(C(=O)N2CCN(C(=O)c3ncn(-c4cccc(Cl)c4)n3)CC2C)n1 (stereo not shown) [Example 211] as the compound, how does the EC50 read?
Its EC50 is 264 nM.

CC1(C)CN(C(=O)c2cccc(C3CCCC3)n2)CCN1C(=O)c1ncn(-c2cccc(Cl)c2)n1 [Example 177, [1-(3-Chloro-phenyl)-1H-[1,2,4]-triazol-3-yl]-[4-(6-cyclopentyl-pyridine-2-carbonyl]-2,2-dimethyl-piperazin-1-yl]-methanone] was tested. Which EC50 did it give?
The EC50 was 37 nM.

For COc1ccnc(C(=O)N2CCN(C(=O)c3ncn(-c4cccc(Cl)c4)n3)C(C)(C)C2)c1 [Example 40], which EC50 is on record?
Its EC50 is 852 nM.

Which EC50 does the source give for Cc1c(C(=O)N2CCN(C(=O)c3ncn(-c4cccc(Cl)c4)n3)C(C)(C)C2)oc2c(F)cccc12 [Example 53] here?
The EC50 was 77 nM.

For Cc1cccc(-n2cnc(C(=O)N3CCN(C(=O)c4c(C)oc5ccccc45)CC3(C)C)n2)c1 [Example 10], which EC50 is on record?
Its EC50 is 95 nM.

With Cc1ccc2oc(C(=O)N3CCN(C(=O)c4ncn(-c5cccc(Cl)c5)n4)C(C)(C)C3)c(C)c2c1 [Example 50] as the compound, how does the EC50 read?
Its EC50 is 294 nM.

Which EC50 does the source give for Cc1cc(-n2cnc(C(=O)N3CCN(C(=O)c4c(C)oc5ccccc45)CC3(C)C)n2)ccc1F [Example 163] here?
Its EC50 is 1510 nM.

With Cc1cc(C(=O)N2CCN(C(=O)c3ncn(-c4cccc(Cl)c4)n3)C(C)(C)C2)ccc1F [Example 64] as the compound, how does the EC50 read?
Its EC50 is 262 nM.

Which EC50 does the source give for CC1(C)CN(C(=O)c2cccc(Cl)c2)CCN1C(=O)c1ncn(-c2cccc(F)c2)n1 [Example 190] here?
The EC50 was 57 nM.

CC1(C)CN(C(=O)c2cccc(Cl)c2)CCN1C(=O)c1ncn(-c2ccccc2F)n1 [Example 194] was tested. Which EC50 did it give?
The EC50 was 491 nM.

COc1cccc(C(=O)N2CCN(C(=O)c3ncn(-c4ccccc4)n3)C(C)(C)C2)n1 [Example 109] was tested. Which EC50 did it give?
Its EC50 is 128 nM.

For Cc1cccc(C(=O)N2CCN(C(=O)c3ncn(-c4cccc(Cl)c4)n3)C(C)(C)C2)n1 [Example 39], which EC50 is on record?
Its EC50 is 419 nM.

Which EC50 does the source give for Cc1cccc(-n2cnc(C(=O)N3CCN(C(=O)c4cccc(C5CC5)n4)CC3(C)C)n2)c1 [Example 181] here?
Its EC50 is 19 nM.

CC1CN(C(=O)c2sc3ccccc3c2Cl)CCN1C(=O)c1ncn(-c2cccc(Cl)c2)n1 (stereo not shown) [Example 271] was tested. Which EC50 did it give?
Its EC50 is 621 nM.

Which EC50 does the source give for CC1(C)CN(C(=O)c2cc(C(F)(F)F)ccn2)CCN1C(=O)c1ncn(-c2cccc(Cl)c2)n1 [Example 89] here?
Its EC50 is 168 nM.

How did the EC50 turn out when Cc1c(C(=O)N2CCN(C(=O)c3ncn(-c4cccc(Cl)c4)n3)CC2C)oc2c(F)cccc12 (stereo not shown) [Example 232] was run?
Its EC50 is 1160 nM.

CC1(C)CN(C(=O)c2coc(C3CC3)n2)CCN1C(=O)c1ncn(-c2ccccc2)n1 [Example 140] was tested. Which EC50 did it give?
The EC50 was 661 nM.

Which EC50 does the source give for Cc1cc(C(=O)N2CCN(C(=O)c3ncn(-c4cccc(F)c4)n3)C(C)(C)C2)oc1C [Example 174, [4-(4,5-Dimethyl-furan-2-carbonyl)-2,2-dimethyl-piperazin-1-yl]-[1-(3-fluoro-phenyl)-1H-[1,2,4]triazol-3-yl]-methanone] here?
The EC50 was 221 nM.

Which EC50 does the source give for CC1(C)CN(C(=O)c2cccc(Cl)c2)CCN1C(=O)c1ncn(-c2ccccc2)n1 [Example 186, [4-(3-Chloro-benzoyl)-2,2-dimethyl-piperazin-1-yl]-(1-phenyl-1H-[1,2,4]-triazol-3-yl)-methanone] here?
Its EC50 is 39 nM.

How did the EC50 turn out when COc1cc(C(=O)N2CCN(C(=O)c3ncn(-c4ccccc4)n3)C(C)C2)ccc1C (stereo not shown) [Example 292] was run?
Its EC50 is 1210 nM.

Which EC50 does the source give for CCn1ccc(C(=O)N2CCN(C(=O)c3ncn(-c4cccc(Cl)c4)n3)C(C)(C)C2)n1 [Example 56] here?
Its EC50 is 436 nM.

For Cc1cccc(-n2cnc(C(=O)N3CCN(C(=O)c4cc(Cl)c5c(c4)OCCO5)CC3C)n2)c1 (stereo not shown) [Example 289], which EC50 is on record?
Its EC50 is 487 nM.

Cc1oc2ccc(F)cc2c1C(=O)N1CCN(C(=O)c2ncn(-c3cccc(F)c3)n2)C(C)(C)C1 [Example 2] was tested. Which EC50 did it give?
The EC50 was 67 nM.

With CC1(C)CN(C(=O)c2cccc(C3CC3)n2)CCN1C(=O)c1ncn(-c2cccc(F)c2)n1 [Example 184] as the compound, how does the EC50 read?
Its EC50 is 33 nM.

CC1(C)CN(C(=O)c2c(Cl)nc3sccn23)CCN1C(=O)c1ncn(-c2cccc(Cl)c2)n1 [Example 63] was tested. Which EC50 did it give?
The EC50 was 89 nM.

For CC1(C)CN(C(=O)c2cc(Cl)cc(Cl)c2)CCN1C(=O)c1ncn(-c2ccccc2)n1 [Example 153], which EC50 is on record?
Its EC50 is 101 nM.

With Cc1c(C(=O)N2CCN(C(=O)c3ncn(-c4cccc(Cl)c4)n3)CC2C)oc2ccccc12 (stereo not shown) [Example 228] as the compound, how does the EC50 read?
The EC50 was 404 nM.

With Cc1cccc(-n2cnc(C(=O)N3CCN(C(=O)c4oc5ccc(F)cc5c4C)C(C)C3)n2)c1 (stereo not shown) [Example 236] as the compound, how does the EC50 read?
Its EC50 is 1620 nM.

How did the EC50 turn out when CCCOc1cccc(C(=O)N2CCN(C(=O)c3ncn(-c4cccc(Cl)c4)n3)CC2C)c1 (stereo not shown) [Example 219] was run?
The EC50 was 356 nM.

With CC1CN(C(=O)c2cccc(-c3ccn(C)n3)c2)CCN1C(=O)c1ncn(-c2cccc(Cl)c2)n1 (stereo not shown) [Example 269] as the compound, how does the EC50 read?
The EC50 was 447 nM.

CC1(C)CN(C(=O)c2cccc(Cl)c2)CCN1C(=O)c1ncn(-c2cc(F)ccc2F)n1 [Example 195] was tested. Which EC50 did it give?
The EC50 was 1000 nM.

Which EC50 does the source give for COc1cccc(C(=O)N2CCN(C(=O)c3ncn(-c4cccc(C)c4)n3)C[C@H]2C)n1 [Example 251, (R)-(6-Methoxy-pyridin-2-yl)-[2-methyl-4-(1-m-tolyl-1H-[1,2,4]-triazole-3-carbonyl)-piperazin-1-yl]-methanone] here?
The EC50 was 886 nM.

CC(C)c1cccc(C(=O)N2CCN(C(=O)c3ncn(-c4ccccc4)n3)C(C)(C)C2)n1 [Example 206, [4-(6-isopropyl-pyridine-2-carbonyl)-2,2-dimethyl-piperazin-1-yl]-(1-phenyl-1H-[1,2,4]triazol-3-yl)-methanone] was tested. Which EC50 did it give?
Its EC50 is 188 nM.

With Cn1nc(C(=O)N2CCN(C(=O)c3ncn(-c4ccccc4)n3)C(C)(C)C2)c2ccccc21 [Example 123] as the compound, how does the EC50 read?
The EC50 was 254 nM.

With CC(=O)c1cccc(C(=O)N2CCN(C(=O)c3ncn(-c4cccc(Cl)c4)n3)C(C)(C)C2)n1 [Example 52] as the compound, how does the EC50 read?
Its EC50 is 63 nM.
